Entries after “also recorded” stand apart in the source; their conditions may differ.
Legend:
[1] = system: cerulein-induced pancreatitis; test: Standard chronic pancreatitis model: cerulein 7 hourly IP injections once per week for 4 weeks, WA one hour prior; type: in vivo, C57BL/6 mice
Description: (§1) C57BL/6 mice were injected with 7 hourly IP injections of cerulein at […] once per week for 4 weeks in a standard model for chronic pancreatitis or 6 hourly IP injections of cerulein at […] twice per week for 8 weeks in a stringent model for chronic pancreatitis. WA was administered one hour prior to cerulein beginning in week 1 in the standard model and beginning in week 5 in the stringent model of chronic pancreatits. Incidence of pancreatitis was confirmed by histopathological analysis of pancreas tissue, serum amylase levels, and neutrophil infiltration into pancreatic tissue. Cell proliferation was assessed by Ki67 staining. Pancreatic stone protein REG1α was analyzed by immunohistochemical staining. ImageJ software was used to quantify the area of positively stained cells.
(§2) Chronic pancreatitis (CP) model: Animals were subjected to repeated episodes of acute pancreatitis by supramaximal dose (50 ug/kg) of cerulein administration. Standard Chronic pancreatitis: Mice were fasted overnight prior cerulein injection with ad-libitum supply of water. CP was induced when cerulein was injected i.p. (50 ug/kg) every hour for a total of 7 injection, this injection was repeated once a week for 4 weeks. Control mice were injected with saline as sham treatment. Another group of mice received WA (1.25 mg/kg) 1 hr before the first cerulein injection every week (n=6 mice/group). Mice were then sacrificed and blood and tissue were processed as previously mentioned. Stringent chronic pancreatitis: Mice were fasted overnight prior cerulein injection with ad-libitum supply of water. CP was induced when cerulein was injected i.p. (50 ug/kg) every hour for a total of 6 injection, this injection was repeated twice a week for 8 weeks. WA (0.625 mg/kg) was injected 1 hr prior to first cerulein injection but administration was initiated at week 5 and continued till the end of the experiment. Mice were then sacrificed and tissue was harvested as previously mentioned.
Amylase activity assay: Serum samples obtained from mice after treatment were aliquoted and stored at −80 C until further analysis. Serum was analyzed for amylase activity as per the manufacturer's protocol.
(§3) Histology and Immunohistochemistry: Pancreas tissue was placed in 10% formalin immediately after harvesting and fixed for at least 48 hrs at 4° C. before processing. Tissue samples were paraffin embedded and 5 um sections were made and mounted on slides for staining. Hematoxylin and Eosin (H&E) staining was performed for histopathological evaluation. Sirius Red Staining was performed as per manufacturer's protocol on the sections to evaluate fibrotic change in the tissue section. To perform immunohistochemical staining, the sections were deparaffinized in xylene and rehydrated using ethanol. The slides were incubated in a citrate buffer of pH 6 with at 97° C. for 20 minutes. Following the antigen retrieval process, the slides were carefully washed 3 times for 5 minutes in Tris-buffered saline (TBS) containing 0.025% Triton X-100. The slides were blocked in 1% bovine serum albumin (BSA) in TBS for 2 hours at room temperature to block non-specific binding of the antibodies. Then the slides were incubated overnight with primary antibodies which were diluted in TBS with 1% BSA. The following day, the slides were gently rinsed 3 times for 5 minutes in TBS 0.025% Triton X-100. TRITC or FITC labelled secondary antibodies from Invitrogen were diluted in TBS with 1% BSA. The slides were counterstained with DAPI and mounted for microscopic analysis. ImageJ software was used to perform semi-quantitative analysis of the staining.
qRT-PCR: Pancreas tissue samples were stored in RNAlater at −80° C. until extraction procedure. Total RNA from the pancreas tissue were extracted using TRIzol reagent. Tissue was homogenized and debris was removed by centrifugation. Chloroform was added to separate the RNA from other biomolecules, and further precipitated using iso-propanol. […]

[2] = system: cerulein-induced pancreatitis; test: as above; type: in vivo, C57BL/6 mice; conditions: WA (1 mg/kg) without cerulein; FIG. 2B
[3] = system: cerulein induced acute pancreatitis; test: Acute pancreatitis model: cerulein 7 hourly IP injections, WA one hour prior; type: in vivo, C57BL/6 mice; conditions: WA 1.25 mg/kg, n=5/group
Description: Acute pancreatitis (AP) model: Animals were fasted overnight prior to induction of pancreatitis by cerulein, water was given ad-libitum. Mice were injected with Cerulein (50 ug/kg intraperitoneally) or saline every hour for a total of 7 injections and were sacrificed 1 hr after the last injection. WA (1.25 mg/kg) was administered 1 hr before first cerulein injection (n=5 mice/group). […] Pancreas was divided for immunohistochemistry, RNA extraction, protein extraction, immune cell infiltration analysis. Amylase activity assay: Serum samples obtained from mice after treatment were aliquoted and stored at −80 C until further analysis. Serum was analyzed for amylase activity as per the manufacturer's protocol. Immune cell infiltration assay: Cell suspension was prepared from the pancreas tissue after digestion with collagenase (2 mg/mL) at 37° C. for 15 mins. Tissue was further mechanically digested by pipetting several times, the suspension was then washed and filtered to obtain only the single cell fraction. Cell suspension obtained was used for flow cytometric analysis of infiltrated immune cells. 1×10^6 pancreatic cells were labelled with anti-CD45, anti-CD11b, anti-CD14, and anti-Ly6g antibodies. Stained cells were detected using FACScanto II and data were analyzed using FlowJo software. To model acute pancreatitis, C57BL/6 mice were injected with 7 hourly IP injections of cerulein at 50 μg/kg. WA (1.25 mg/kg) was administered one hour prior to cerulein. […] Inflammatory cell infiltration was increased in cerulein-treated mice (FIGS. 18B, 18E, and 18H) compared to controls (FIGS. 18A, 18D, and 18G), but were reduced in cerulein and WA-treated mice (FIGS. 18C, 18F, and 18I) compared to cerulein-treated mice.

NF-κB p65 = NF-κB p65 immunohistochemical staining and protein blot of pancreas of cerulein treated mice; type: in vivo, mouse; conditions: WA + cerulein vs cerulein treated mice
Description: as §3, with “The slides were counterstained with DAPI and mounted for microscopic analysis.” left out

[4] = system: cerulein-induced pancreatitis; test: Stringent chronic pancreatitis model: cerulein 6 hourly IP injections twice per week for 8 weeks, WA from week 5; type: in vivo, C57BL/6 mice; conditions: for Histopathology (H&E, Sirius red): pancreas damage, acinar cell atrophy, mononuclear cell infiltration, fibrosis: stringent model, cerulein (50 ug/kg) + Withaferin vs cerulein only, FIGS. 3C, 3F, six animals per group
Description: as §1, §2, §3
qRT-PCR: Pancreas tissue samples were stored in RNAlater at −80° C. until extraction procedure. Total RNA from the pancreas tissue were extracted using TRIzol reagent. Tissue was homogenized and debris was removed by centrifugation. Chloroform was added to separate the RNA from other biomolecules, and further precipitated using iso-propanol. RNA pellet was washed with ethanol and quantified using nanodrop 2000. cDNA synthesis was performed using high capacity cDNA reverse transcription kit as per manufacturer's protocol. […]

## CC1=C(CO)C(=O)O[C@@H]([C@@H](C)[C@H]2CC[C@H]3[C@@H]4C[C@H]5O[C@]56[C@@H](O)C=CC(=O)[C@]6(C)[C@H]4CC[C@]23C)C1 [WA, (4β,5β,6β,22R)-5,6-Epoxy-4,22,27-trihydroxy-1-oxoergosta-2,24-dien-26-oic acid 6-lactone]
[1]; Standard CP model, FIG. 9A, n=5/group
  Ki67+ area in pancreas (ImageJ, semi-quantitative): significantly lower Ki67+ area
[1]; WA + cerulein (50 ug/kg) vs cerulein only, FIG. 2D, six animals per group
  Histopathology (H&E): acinar cell atrophy, mononuclear cell infiltration, severity of chronic pancreatitis: significantly reduced acinar cell atrophy and infiltration of mononuclear cells; also recorded: significantly reduced severity of chronic pancreatitis
[1]; WA + cerulein treated mice, cerulein only 952.8±228.8, p=0.045, FIG. 4
  Serum amylase levels: 696.3 ± 98.6 nmol/min/mL
[1]; WA treated mice, cerulein only 3,742±1,188, p=0.03, FIGS. 7F, 7G, standard or stringent CP model not stated
  Neutrophils migrated into pancreas: 719±276 cells per objective field at a magnification of ×200
[1]; WA treatment, cerulein only 3,779±448, p=0.003, brought to control levels, model not stated
  REG1α immunohistochemical staining of pancreas: 544±43
[1]; WA+cerulein, cerulein only 20.0±16.0, FIG. 8, 9A-B (percentage of Ki67+ cells, ImageJ), model not stated
  Ki67+ cells in the pancreas: 3.8±2.9
[1]; cerulein + WA vs cerulein, FIG. 7F, n=5/group, model not stated
  Ly6g+ granulocyte infiltration of pancreas (immunohistochemical staining): significantly reduced inflammatory cell infiltration
[1]; serum at week 3 and week 4, one hour after last injection, FIG. 4, n=6/group
  Serum amylase level compared to cerulein treated mice: significantly lower serum amylase level
[1]; standard CP model, HMGB1, Pycard, NLRP3, IL-18, IL-1b, FIG. 13, n=4/group
  Inflammasome gene expression in pancreas (qRT-PCR): decreased; also recorded: significantly reduced inflammasome related genes
[1]; standard CP model, IL-6, TNFα, Nos2, Casp3, Casp7, Bax, FIG. 15, n=4/group
  Pro-inflammatory and pro-apoptotic gene expression in pancreas (qRT-PCR): decreased; also recorded: significantly reduced most of these gene signals
[1]; standard CP model, Perk, Atf6, Ern1, Eif2a, Atf4, xbp1, Chop, FIG. 11, n=4/group
  ER stress gene expression in pancreas (qRT-PCR): decreased; also recorded: significantly reduced ER stress gene signals
[1]; standard chronic pancreatitis, FIG. 5A, n=4/group
  IL-6 in pancreas tissue lysate (Luminex): effectively blocked production
[1]; standard chronic pancreatitis, FIG. 5B, n=4/group
  MCP-1 in pancreas tissue lysate (Luminex): effectively blocked production
[2]
  Histopathology (H&E) of pancreas, WA alone: normal phenotype
[3]; CD45+CD11b+ myeloid cells, CD45+Ly6g+ granulocytes, CD45+CD14+ monocytes, FIG. 18
  Inflammatory cell infiltration into pancreas (flow cytometry): reduced percentage of infiltrating cells
[3]; FIG. 19G-J
  Leucocyte (CD45+) infiltration into pancreas (flow cytometry): reduced percentage of infiltrating cells
[3]; serum one hour after last cerulein injection, FIG. 17
  Serum amylase compared to cerulein treated mice: significantly decreased; also recorded: significantly reduced serum amylase
NF-κB p65; FIG. 10C
  NF-κB p65 translocation into the nucleus (immunohistochemical staining of pancreatic tissue): significantly prevented NF-κB translocation into the nucleus
NF-κB p65; FIG. 10D
  NF-κB P65 protein expression in pancreatic lysate (protein blot): significantly inhibited overexpression
[4]; Stringent CP Model, FIG. 9B, n=5/group
  Ki67+ area in pancreas (ImageJ, semi-quantitative): significantly lower Ki67+ area
[4]; stringent CP model, HMGB1, NLRP3, IL-1b, FIG. 14, n=4/group
  Inflammasome gene expression in pancreas (qRT-PCR): decreased; also recorded: significantly reduced inflammasome related genes
[4]; stringent CP model, IL-6, TNFα, Nos2, Bax, FIG. 16, n=4/group
  Pro-inflammatory and pro-apoptotic gene expression in pancreas (qRT-PCR): decreased; also recorded: significantly reduced most of these gene signals
[4]; stringent CP model, Perk, Ern1, Atf6, Chop, xbp1, eif2a, Atf4, FIG. 12, n=4/group
  ER stress gene expression in pancreas (qRT-PCR): decreased; also recorded: significantly reduced ER stress gene signals
[4]; stringent chronic pancreatitis, FIG. 6A, n=4/group
  IL-6 in pancreas tissue lysate (Luminex): effectively blocked production
[4]; stringent chronic pancreatitis, FIG. 6B, n=4/group
  MCP-1 in pancreas tissue lysate (Luminex): effectively blocked production
[4]
  Histopathology (H&E, Sirius red): pancreas damage, acinar cell atrophy, mononuclear cell infiltration, fibrosis: significantly reduced acinar cell atrophy and infiltration of mononuclear cells
[4]; listed as Withaferin
  Histopathology (H&E, Sirius red): pancreas damage, acinar cell atrophy, mononuclear cell infiltration, fibrosis: significantly reduced pancreas damage and fibrosis

Reference: patent US10758551B2, “Methods and compositions for treating pancreatitis” (BAYLOR RESEARCH INSTITUTE, priority 2015, dated 2020)
